Source: patent publication US9012166B2, “Method for assaying histone methylation enzyme activity” (Kyushu Institute of Technology, priority 2010, dated 2015)

Experiments:
Type in all cases: biochemical
lysyl endopeptidase = lysyl endopeptidase (Achromobacter lyticus, UniProt P15636); assay: LC/MS analysis of reaction between substrate compound and lysyl endopeptidase; settings: Example 3; 37° C., 15 minutes
Protocol: Distilled water was added to 10 μL of 2×HMT buffer (100 mM Tris-HCl (pH 8.5), 20 mM MgCl2, 40 mM KCl, 20 mM 2-mercaptoethanol, 500 mM sucrose) and 1 μL of a BocLysMCA solution to adjust the total volume to 20 μL. To the resultant solution was added 30 μL of a peptidase solution (20 mg/mL trypsin or 20 mAU/mL lysyl endopeptidase), which was then mixed and incubated at 37° C. for 15 minutes. Then, the solution was applied to a liquid chromatograph mass spectrometer (LC/MS) for analysis. Analysis was performed by the same method as that for the above analysis except for using monomethylated BocLysMCA (i.e., “BocLys(Me)MCA”), dimethylated BocLysMCA (i.e., “BocLys(Me)2MCA”), or trimethylated BocLysMCA (i.e., “BocLys(Me)3MCA”) in place of BocLysMCA. Analysis was also carried out by the same method except for using, in place of the above-described peptidase solution, an equal volume of distilled water.

G9a = target: T1, G9a (Mus musculus, UniProt Q9Z148); assay: Western blot evaluation of histone methyltransferase inhibitor, G9a; settings: FIG. 17
T1 sequence (Q9Z148 1-1263): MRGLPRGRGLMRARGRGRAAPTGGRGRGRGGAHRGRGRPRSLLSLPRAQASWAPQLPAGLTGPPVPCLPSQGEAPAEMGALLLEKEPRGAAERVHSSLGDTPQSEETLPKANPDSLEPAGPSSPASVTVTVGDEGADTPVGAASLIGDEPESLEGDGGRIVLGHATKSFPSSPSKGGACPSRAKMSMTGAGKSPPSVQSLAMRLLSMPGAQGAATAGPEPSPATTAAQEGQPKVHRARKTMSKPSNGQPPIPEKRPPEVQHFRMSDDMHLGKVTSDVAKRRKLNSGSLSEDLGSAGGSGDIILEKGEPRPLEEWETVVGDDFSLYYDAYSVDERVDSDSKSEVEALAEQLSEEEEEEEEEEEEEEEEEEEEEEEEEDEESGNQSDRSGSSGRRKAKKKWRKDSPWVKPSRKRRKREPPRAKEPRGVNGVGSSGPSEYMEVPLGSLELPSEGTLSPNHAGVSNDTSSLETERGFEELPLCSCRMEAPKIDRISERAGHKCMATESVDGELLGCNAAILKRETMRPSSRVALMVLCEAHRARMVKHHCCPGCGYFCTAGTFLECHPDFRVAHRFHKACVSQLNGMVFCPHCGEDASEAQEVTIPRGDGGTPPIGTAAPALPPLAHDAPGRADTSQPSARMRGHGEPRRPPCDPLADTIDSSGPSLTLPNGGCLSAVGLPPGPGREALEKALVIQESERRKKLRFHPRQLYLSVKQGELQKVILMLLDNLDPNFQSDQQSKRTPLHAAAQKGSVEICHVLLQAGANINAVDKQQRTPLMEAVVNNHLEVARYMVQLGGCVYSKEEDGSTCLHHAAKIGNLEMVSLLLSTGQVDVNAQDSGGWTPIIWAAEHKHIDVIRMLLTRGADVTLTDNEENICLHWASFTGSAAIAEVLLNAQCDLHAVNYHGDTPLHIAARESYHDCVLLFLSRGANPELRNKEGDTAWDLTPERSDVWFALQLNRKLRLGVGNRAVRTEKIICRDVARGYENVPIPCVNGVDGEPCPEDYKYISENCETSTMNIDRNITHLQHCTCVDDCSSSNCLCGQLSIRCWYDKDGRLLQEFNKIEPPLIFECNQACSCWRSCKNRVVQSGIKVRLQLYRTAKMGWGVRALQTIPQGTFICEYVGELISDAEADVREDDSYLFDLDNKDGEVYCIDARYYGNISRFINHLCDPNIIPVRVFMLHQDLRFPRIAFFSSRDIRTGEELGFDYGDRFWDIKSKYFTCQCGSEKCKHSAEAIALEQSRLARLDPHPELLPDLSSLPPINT
Protocol: (§1) To examine whether the activity of a histone methyltransferase inhibitor could be evaluated by an assay for measuring histone methyltransferase activity using a peptidyl MCA, the assay for measuring histone methyltransferase activity was attempted. However, the activity of gliotoxin as a histone methyltransferase inhibitor was evaluated by Western blot, prior to the assay for measuring histone methyltransferase activity. Gliotoxin is known not to inhibit the methylation activity of Set9 but to inhibit the methylation activity of G9a. […] The following assay for measuring histone methyltransferase activity was carried out in order to examine whether the same results as those from the Western blot could also be obtained from the assay for measuring histone methyltransferase activity.

Set9 = target: T2, Set9 (Homo sapiens, UniProt Q8WTS6); assay: Western blot evaluation of histone methyltransferase inhibitor, Set9; settings: FIG. 17
T2 sequence (Q8WTS6 1-366): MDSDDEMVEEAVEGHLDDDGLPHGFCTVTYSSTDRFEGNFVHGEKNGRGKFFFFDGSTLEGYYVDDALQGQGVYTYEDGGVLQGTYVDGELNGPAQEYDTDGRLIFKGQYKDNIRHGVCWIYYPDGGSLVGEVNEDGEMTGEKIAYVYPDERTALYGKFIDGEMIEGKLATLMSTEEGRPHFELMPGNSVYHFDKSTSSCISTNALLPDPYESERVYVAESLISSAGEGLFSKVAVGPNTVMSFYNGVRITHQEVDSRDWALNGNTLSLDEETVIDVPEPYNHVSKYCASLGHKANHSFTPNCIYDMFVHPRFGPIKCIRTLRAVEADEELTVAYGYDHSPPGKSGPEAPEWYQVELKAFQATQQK
Protocol: as §1

Chain of lysyl endopeptidase (P15636 206-473 limits assumed, species assumed): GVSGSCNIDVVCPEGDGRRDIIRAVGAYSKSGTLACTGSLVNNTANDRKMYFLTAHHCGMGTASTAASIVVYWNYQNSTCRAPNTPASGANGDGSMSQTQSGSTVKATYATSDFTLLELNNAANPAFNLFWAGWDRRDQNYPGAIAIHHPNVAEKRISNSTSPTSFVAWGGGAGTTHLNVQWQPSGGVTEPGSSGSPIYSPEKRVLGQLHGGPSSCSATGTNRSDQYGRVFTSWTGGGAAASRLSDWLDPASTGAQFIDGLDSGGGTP

Structure (SMILES)	hydrolysis by lysyl endopeptidase (LC/MS peaks) (lysyl endopeptidase)	inhibition of the methylation of G9a (Western blot) (G9a)	inhibition of the methylation of Set9 (Western blot) (Set9)
Cc1cc(=O)oc2cc(NC(=O)C(CCCCN)NC(=O)OC(C)(C)C)ccc12 (stereo not drawn) [BocLysMCA, Boc-K-MCA]	most BocLysMCA was hydrolyzed		
CN1C(=O)[C@]23CC4=CC=C[C@H](O)[C@H]4N2C(=O)[C@@]1(CO)SS3 [gliotoxin]		inhibited	did not inhibit
